Patent US20060100431A1, “Biologically active compounds” (Amura Therapeutics Limited, priority 2002, published 2006)

Key:
Format in all cases: biochemical
[1] = molecular target: T1, CPB2.8ΔCTE (Leishmania mexicana, UniProt P36400); assay: Leishmania mexicana cysteine protease B (CPB) peptidase activity assay (Ki); settings: Ki, inhibitors of Leismania mexicana CPB protease
T1 construct: Wild-type recombinant CPB without the C-terminal extention (i.e. CPB2.8ΔCTE); Dr. Jeremy Mottram (Wellcome Centre for Molecular Parasitology, University of Glasgow)
T1 sequence (P36400 126-343, stated change not applied): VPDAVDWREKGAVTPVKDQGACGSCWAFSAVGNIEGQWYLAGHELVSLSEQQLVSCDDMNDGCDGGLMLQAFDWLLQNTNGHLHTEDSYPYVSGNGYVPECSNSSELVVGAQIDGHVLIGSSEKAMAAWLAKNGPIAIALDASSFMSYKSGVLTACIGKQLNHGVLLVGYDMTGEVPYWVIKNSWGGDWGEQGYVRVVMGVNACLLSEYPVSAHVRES
Procedure, shortened: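 Recombinant CPB2.8ΔCTE (0.25 nM) was assayed in 100 mM sodium acetate pH 5.5 with 1 mM EDTA, 200 mM NaCl and 10 mM DTT at 25 °C, DMSO <1%, enzyme added to start. Rates were taken from continuous fluorescence slopes; apparent Ki was fitted assuming reversible, pure-competitive inhibition.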

[2] = molecular target: Wild-type cruzipain (Trypanosoma cruzi, UniProt P25779); assay: Trypanosoma cruzi cruzipain peptidase activity assay (Ki); settings: read-out: Ki, inhibitors of cruzain and cruzipains
Chain of Wild-type cruzipain (P25779 whole entry): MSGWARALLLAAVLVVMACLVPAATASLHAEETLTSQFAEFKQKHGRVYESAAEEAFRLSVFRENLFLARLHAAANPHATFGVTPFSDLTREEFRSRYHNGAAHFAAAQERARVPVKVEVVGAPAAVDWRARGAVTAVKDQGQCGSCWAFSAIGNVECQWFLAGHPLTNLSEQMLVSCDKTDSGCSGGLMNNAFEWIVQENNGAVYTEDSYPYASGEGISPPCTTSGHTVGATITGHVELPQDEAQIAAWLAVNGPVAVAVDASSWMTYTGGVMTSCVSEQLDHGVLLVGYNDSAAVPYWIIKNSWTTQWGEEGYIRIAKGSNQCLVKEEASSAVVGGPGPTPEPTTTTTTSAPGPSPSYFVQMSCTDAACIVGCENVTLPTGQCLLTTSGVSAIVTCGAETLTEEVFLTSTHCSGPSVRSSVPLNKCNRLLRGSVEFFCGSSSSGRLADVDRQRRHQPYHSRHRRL
Procedure, shortened: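 Native cruzipain from T. cruzi Dm28 epimastigotes, 2.5 nM, in 100 mM sodium phosphate pH 6.75 with 1 mM EDTA and 10 mM L-cysteine, 25 °C, DMSO <1%. Rates taken from continuous fluorogenic substrate read; Ki by regression assuming reversible pure-competitive inhibition.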

[3] = molecular target: T2, human cathepsin L (Homo sapiens, UniProt P07711); assay: Cathepsin L peptidase activity assay (Ki); settings: read-out: Ki, inhibitors of cathepsin L
T2 construct: purchased CN Biosciences
T2 sequence (P07711 114-333): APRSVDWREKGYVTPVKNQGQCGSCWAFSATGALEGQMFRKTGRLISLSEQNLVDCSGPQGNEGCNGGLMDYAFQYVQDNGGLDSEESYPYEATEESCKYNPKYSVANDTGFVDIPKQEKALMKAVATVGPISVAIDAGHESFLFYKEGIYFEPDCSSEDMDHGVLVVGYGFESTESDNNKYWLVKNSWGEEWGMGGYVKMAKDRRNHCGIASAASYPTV
Procedure, shortened: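 Human cathepsin L at 1 nM with Ac-Phe-Arg-AMC at its KM^app (~20 μM) in 10 mM bis-tris-propane pH 6.5, 1 mM EDTA, 5 mM 2-mercaptoethanol, 1 mM CaCl2, DMSO <1%, 25±1° C. Reaction enzyme-initiated; AMC fluorescence (ex 365/em 450 nm) monitored over time.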

[4] = molecular target: T3, Bovine cathepsin S (Bos taurus, UniProt P25326); assay: Cathepsin S peptidase activity assay, bovine enzyme (Ki); settings: species of cathepsin S not given; read-out: Ki, inhibitors of cathepsin S
T3 construct: purchased CN Biosciences
T3 sequence (P25326 115-331): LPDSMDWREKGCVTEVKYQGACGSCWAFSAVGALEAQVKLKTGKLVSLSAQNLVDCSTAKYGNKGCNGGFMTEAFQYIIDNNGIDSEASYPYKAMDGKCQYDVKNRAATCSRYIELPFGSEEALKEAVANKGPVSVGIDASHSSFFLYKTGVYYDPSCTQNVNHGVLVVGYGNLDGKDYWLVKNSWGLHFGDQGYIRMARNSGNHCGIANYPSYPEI
Method: Unless otherwise stated, all general chemicals and biochemicals were purchased from either the Sigma Chemical Company, Poole, Dorset, U.K or from Fisher Scientific UK, Loughborough, Leicestershire, U.K. Absorbance assays were carried out in flat-bottomed 96-well plates (Spectra; Greiner Bio-One Ltd., Stonehouse, Gloucestershire, U.K.) using a SpectraMax PLUS384 plate reader (Molecular Devices, Crawley, U.K.). Fluorescence high throughput assays were carried out in either 384-well microtitre plates (Corning Costar 3705 plates, Fisher Scientific) or 96-well ‘U’ bottomed Microfluor W1 microtitre plates (Thermo Labsystems, Ashford, Middlesex, U.K.). Fluorescence assays were monitored using a SpectraMax Gemini fluorescence plate reader (Molecular Devices). For substrates employing either a 7-amino-4-methylcoumarin (AMC) or a 7-amino-4-trifluoromethylcoumarin (AFC) fluorophore, assays were monitored at an excitation wavelength of 365 nm and an emission wavelength of 450 nm and the fluorescence plate reader calibrated with AMC. For substrates employing a 3-amino-benzoyl (Abz) fluorophore, assays were monitored at an excitation wavelength of 310 nm and an emission wavelength of 445 nm; the fluorescence plate reader calibrated with 3-amino-benzamide (Fluka). Unless otherwise indicated, all the peptidase substrates were purchased from Bachem UK, St Helens, Merseyside, UK. Substrates utilizing fluorescence resonance energy transfer methodology (i.e. FRET-based substrates) were synthesized at Incenta Limited using published methods (Atherton & Sheppard, Solid Phase Peptide Synthesis, IRL Press, Oxford, U.K, 1989) and employed Abz (2-aminobenzoyl) as the fluorescence donor and 3-nitro-tyrosine [Tyr(NO2)] as the fluorescence quencher (Meldal, M. and Breddam, K., Anal. Biochem, 195, 141-147, 1991). Hydroxyethylpiperazine ethanesulfonate (HEPES), tris-hydroxylmethyl aminomethane (tris) base, bis-tris-propane and all the biological detergents (e.g. CHAPS, zwittergents, etc.) were purchased from CN Biosciences UK, Beeston, Nottinghamshire, U.K. Glycerol was purchased from Amersham Pharmacia Biotech, Little Chalfont, Buckinghamshire, U.K. Stock solutions of substrate or inhibitor were made up to 10 mM in 100% dimethylsulfoxide (DMSO) (Rathburns, Glasgow, U.K.) and diluted as appropriately required. In all cases the DMSO concentration in the assays was maintained at less than 1% (vol./vol.).
Assay protocols were based on literature precedent (Table 4; Barrett, A. J., Rawlings, N. D. and Woessner, J. F., 1998, Handbook of Proteolytic Enzymes, Academic Press, London and references therein) and modified as required to suit local assay protocols. Enzyme was added as required to initiate the reaction and the activity, as judged by the change in fluorescence upon conversion of substrate to product, was monitored over time. All assays were carried out at 25±1° C.
Bovine cathepsin S, human cathepsin L, human cathepsin H and human cathepsin B were obtained from CN Biosciences. Recombinant human cathepsin S, human cathepsin K and human cathepsin X were obtained from Dr. Boris Turk (Josef Stefan Institute, Ljubljana, Slovenia). Unless otherwise stated, all peptidase activity assays were carried out in 10 mM bis-tris-propane (BTP), pH 6.5 containing 1 mM EDTA, 5 mM 2-mercaptoethanol and 1 mM CaCl2. Human cathepsin H activity assays were carried out in 10 mM BTP pH 6.5, 142 mM NaCl2, 1 mM CaCl2, 1 mM EDTA, 1 mM DTT, 0.035 mM Zwittergent 3-16. Human cathepsin K assays were carried out in 100 mM sodium acetate; pH 5.5 containing 20 mM L-cysteine and 1 mM EDTA (Bossard, M. J., et. al., J. Biol. Chem., 21, 12517-12524, 1996). Human cathepsin X assays were carried out in 100 mM sodium acetate; pH 5.5 containing 20 mM L-cysteine; 0.05% (w/v) Brij 35 and 1 mM EDTA (Santamaria, I., et. al., J. Biol. Chem., 273, 16816-16823, 1998; Klemencic, J, et al., Eur. J. Biochem., 267, 5404-5412, 2000).

Measured: Ki

CC(C)C[C@H](NC(=O)c1ccc(N(C)C)cc1)C(=O)N1CC[C@@H]2[C@H]1C(=O)CN2C(=O)[C@@H]1CCCN1C(=O)OCc1ccccc1 [Example 154, (3aS,6aR)-(2S)-2-{4-[(2S)-2-(4-Dimethylamino-benzoylamino)-4-methyl-pentanoyl]-3-oxo-hexahydro-pyrrolo[3,2-b]pyrrole-1-carbonyl}-pyrrolidine-1-carboxylic acid benzyl ester]
< 5 µM: all assays above

CC(C)C[C@H](NC(=O)c1ccc2cc[nH]c2c1)C(=O)N1CC[C@@H]2[C@H]1C(=O)CN2C(=O)c1ccccc1 [Example 88, (3aR,6aS)-1H-Indole-6-carboxylic acid [(1S)-1-(4-benzoyl-6-oxo-hexahydro-pyrrolo[3,2-b]pyrrole-1-carbonyl)-3-methyl-butyl]-amide]
< 5 µM: all assays above

CC[C@H](NC(=O)OCc1ccccc1)C(=O)N1CC(=O)[C@@H]2[C@H]1CCN2C(=O)[C@H](CC(C)C)NC(=O)c1ccc(N(C)C)cc1 [Example 159, (3aS,6aR)-((1S)-1-{4-[(2S)-2-(4-Dimethylamino-benzoylamino)-4-methyl-pentanoyl]-3-oxo-hexahydro-pyrrolo[3,2-b]pyrrole-1-carbonyl}-propyl)-carbamic acid benzyl ester]
< 5 µM: all assays above

CCc1ccc(C(=O)N[C@@H](CC(C)C)C(=O)N2CC[C@@H]3[C@H]2C(=O)CN3C(=O)c2ccccc2)cc1 [Example 171, (3aR,6aS)-N-[(1S)-1-(4-Benzoyl-6-oxo-hexahydro-pyrrolo[3,2-b]pyrrole-1-carbonyl)-3-methyl-butyl]-4-ethyl-benzamide]
< 5 µM: all assays above

Cc1ccc(C(=O)N[C@@H](CC(C)C)C(=O)N2CC[C@@H]3[C@H]2C(=O)CN3C(=O)c2ccccc2)cc1 [Example 170]
< 5 µM: all assays above

CC(C)C[C@H](NC(=O)c1ccc2[nH]ccc2c1)C(=O)N1CC[C@@H]2[C@H]1C(=O)CN2C(=O)c1ccccc1 [Example 89, (3aR,6aS)-1H-Indole-5-carboxylic acid [(1S)-1-(4-benzoyl-6-oxo-hexahydro-pyrrolo[3,2-b]pyrrole-1-carbonyl)-3-methyl-butyl]-amide]
< 5 µM: all assays above

CC(C)C[C@H](NC(=O)OCc1ccccc1)C(=O)N1CC(=O)[C@@H]2[C@H]1CCN2C(=O)[C@H](CC(C)C)NC(=O)c1ccc(N(C)C)cc1 [Example 37, (3aS,6aR)-((1S)-1-{4-[(2S)-2-(4-Dimethylamino-benzoylamino)-4-methyl-pentanoyl]-3-oxo-hexahydro-pyrrolo[3,2-b]pyrrole-1-carbonyl}-3-methyl-butyl)-carbamic acid benzyl ester]
< 5 µM: all assays above

CC(C)C[C@H](NC(=O)c1ccc2ncccc2c1)C(=O)N1CC[C@@H]2[C@H]1C(=O)CN2C(=O)c1ccccc1 [Example 86, (3aR,6aS)-Quinoline-6-carboxylic acid [(1S)-1-(4-benzoyl-6-oxo-hexahydro-pyrrolo[3,2-b]pyrrole-1-carbonyl)-3-methyl-butyl]-amide]
< 5 µM: all assays above

CC(C)C[C@H](NC(=O)c1ccc(CN)cc1)C(=O)N1CC[C@@H]2[C@H]1C(=O)CN2C(=O)c1ccccc1 [Example 93, (3aR,6aS)-4-Aminomethyl-N-[(1S)-1-(4-benzoyl-6-oxo-hexahydro-pyrrolo[3,2-b]pyrrole-1-carbonyl)-3-methyl-butyl]-benzamide]
< 5 µM: all assays above

CCC[C@H](NC(C)=O)C(=O)N1CC(=O)[C@@H]2[C@H]1CCN2C(=O)[C@H](CC(C)C)NC(=O)c1ccc(N(C)C)cc1 [Example 245, (3aR,6aS)-N-{(1S)-1-[4-((2S)-2-Acetylamino-pentanoyl)-6-oxo-hexahydro-pyrrolo[3,2-b]pyrrole-1-carbonyl]-3-methyl-butyl}-4-dimethylamino-benzamide]
< 5 µM: all assays above

CC(C)C[C@H](NC(=O)c1ccc(N(C)C)cc1)C(=O)N1CC[C@@H]2[C@H]1C(=O)CN2C(=O)c1ccsc1 [Example 164, (3aR,6aS)-4-Dimethylamino-N-{(1S)-3-methyl-1-[6-oxo-4-(thiophene-3-carbonyl)-hexahydro-pyrrolo[3,2-b]pyrrole-1-carbonyl]-butyl}-benzamide]
< 5 µM: all assays above

CC(C)C[C@H](NC(=O)c1ccc(N2CCCC2)cc1)C(=O)N1CC[C@@H]2[C@H]1C(=O)CN2C(=O)c1ccccc1 [Example 193, (3aR,6aS)-N-[(1S)-1-(4-Benzoyl-6-oxo-hexahydro-pyrrolo[3,2-b]pyrrole-1-carbonyl)-3-methyl-butyl]-4-pyrrolidin-1-yl-benzamide]
< 5 µM: all assays above

CC(C)C[C@H](NC(=O)c1ccc(C(C)C)cc1)C(=O)N1CC[C@@H]2[C@H]1C(=O)CN2C(=O)c1ccccc1 [Example 172, (3aR,6aS)-N-[(1S)-1-(4-Benzoyl-6-oxo-hexahydro-pyrrolo[3,2-b]pyrrole-1-carbonyl)-3-methyl-butyl]-4-isopropyl-benzamide]
< 5 µM: all assays above
